Values quoted from earlier work, collected in patent publication US20100003224A1, “Combination Therapy” (GENZYME CORPORATION, priority 2006, published 2010).

Tests used:
[1] = test system: white blood cell counts; details: WO 00/45814
[2] = test system: collagen-induced arthritis; details: mice
[3] = test system: progenitor cells; details: single agent
[4] = test system: pre-B-ALL cells; details: in vitro
[5] = test system: pre-B-ALL cells; details: in vitro; remark: listed apart in the source
[6] = test system: multiple sclerosis; details: in vivo

Compound | white blood cell counts [1] | effects in collagen-induced arthritis models [2] | mobilization of progenitor cells [3] | cytotoxic and antiproliferative effects of vincristine and dexamethasone [4] | SDF-1 induced chemotaxis of pre-B-ALL cells into bone marrow stroma layers [5] | efficacy in the treatment of multiple sclerosis [6]
c1cc(CN2CCCNCCNCCCNCC2)ccc1CN1CCCNCCNCCCNCC1 [AMD3100, 1,1′-[1,4-phenylene-bis(methylene)]-bis-1,4,8,11-tetraazacyclotetradecane] | elevate white blood cell counts | protective effects | mobilizes progenitor cells | enhanced | blocked | 
natalizumab: humanized monoclonal antibody against α4 (anti-VLA-4 antibody) |  |  |  |  |  | demonstrated efficacy
